Measured values reported in US20050256134A1, “Use of creatine analogues and creatine kinase modulators for the prevention and treatment of glucose metabolic disorders” (AVICENA GROUP, INC., priority 1995, published 2005).

What was measured:
[1] = system: Zuker lean littermates (ZDF +/?); assay: Creatine compounds as 1% of the diet, glucose and insulin levels in lean littermates; format: in vivo, rat
From the text: (§1) This preliminary study was initiated to gain insight into the potential regulation of glucose levels by creatine compounds in ZDF rats, a widely studied rodent model of NIDDM (Peterson, Lessons from Animal Diabetes, 1994, Pages 225-230). Male Zuker diabetic fatty (ZDF-fa/fa) rats and their lean Zuker littermates (ZDF +/?) were from Genetic Models, Inc., Indianapolis, Ind. […] Hyperglycemia is initially manifested at about 7 weeks of age and all obese rats are fully diabetic by 12 weeks of age (fed blood glucose of greater than 500 mg %). This level of hyperglycemia increases slightly for several weeks thereafter. Between 7 and 10 weeks, blood insulin levels are high but these subsequently drop as the pancreatic beta cells cease to respond to the glucose stimulus. The lean (ZDF/Gmi) rats are the control counterparts of the diabetic animals. These rats have the same genetics as the obese animals except for the obesity trait. No phenotypic differences have been observed between these rats and other typical lean control rats.
(§2) Male Zuker diabetic fatty (ZDF-fa/fa) rats and Zuker lean littermates (ZDF +/?) were 12 weeks old when dosing with creatine compounds was initiated. The ZDF-fa/fa rats were completely diabetic. The littermates were the same age. […] Animals were bled regularly throughout the experiment and glucose and insulin levels were determined using standard procedures (Linco RI-13K). […]

creatine kinase = settings: forward reaction, in vitro and in vivo; cited from earlier work
[2] = system: Male Zuker diabetic fatty (ZDF-fa/fa) rats; assay: Creatine compounds as 1% of the diet, glucose and insulin levels in diabetic rats; format: in vivo, rat
From the text: as §1, §2

[3] = system: female Fisher 344 rats bearing rat mammary adenocarcinoma 13762; assay: Effect of creatine compounds on glucose levels in rats bearing tumors (i.v., days 4-8 and 14-18); format: in vivo; settings: for Glucose Levels: i.v. days 4-8 and 14-18
Procedure: Two creatine compounds, creatine phosphate and cyclocreatine, were injected intravenously into tumor bearing rats, and the level of glucose in the rats was monitored. Beta guanidino propionic acid, also was administered. […] There was no specific reason for using tumor bearing rats, except convenience because the antitumor activity of these compounds also was being studied. The presence of the tumors should not have any effect on the ability of these compounds to regulate glucose levels. The rats carrying the tumors were described by us previously (see, […] et al., Cancer Chemother. Pharmacol, 35: 411-416, 1995). The schedule and dose selected in these experiments was based on prior experience working with this class of compounds as anticancer or antiviral chemotherapeutic agents. The rat mammary adenocarcinoma 13762 was implanted in the female Fisher 344 rats on day zero. The creatine compounds were administered intravenously on days 4-8 and days 14-18. The amounts used were 1 gm/kg of cyclocreatine, 0.93 gm/kg for beta guanidino propionic acid, and 2.32 gm/kg for creatine phosphate. […] Plasma glucose levels were measured at around 11 a.m., by taking a drop of blood from the animals and testing glucose levels using a commercial kit ([…] bG, Boehringer Mannheim). For animals that were treated with drugs, the treatment was around 9 a.m., and bleeding was also at around 11 a.m. To examine more closely what occurred in the above two experiments, the average readings of glucose levels from experiments one and two were taken in the following time intervals post drug treatment: Days 2-3, Days 4-8, Days 8-12, Days 14-18, Day 15 and Days 19-22.

NC1=NCCN1CC(=O)O [cyclocreatine]
drop in insulin levels ([1]; lean animals): over 50%
drop in level of glucose ([1]; lean rats, vs Day 0, n=3): about 15%
phosphorylation by creatine kinase (creatine kinase): phosphorylated efficiently
drop in glucose levels ([2]; obese diabetic animals, vs Day 0, n=3): ~20%
effect on insulin levels ([2]; obese fatty animals): minimally affected
Glucose Levels ([3]; Example 1): two drops in glucose levels at the time of drug administration
Glucose Levels ([3]; Example 2 (repeat)): induced a drop in the level of glucose after each administration
drop in glucose level ([3]; average of experiments one and two, day 15): ≤ 50%
